Assay results from patent publication US6369225B1, “Compounds having activity as inhibitors of cytochrome P450RAI” (Allergan Sales, Inc., priority 2000, dated 2002).
pEC50, pKd: −log10 of the molar value.

Assays:
RARβ [1] = target: T1, RARβ (Homo sapiens, UniProt P10826); assay: chimeric receptor transactivation assay, RARβ; type: cell-based; settings: EC50 line of EC50/(EFFICACY)/Kd, read-out: RAR EC50 β
T1 sequence (P10826 183-417 limits assumed): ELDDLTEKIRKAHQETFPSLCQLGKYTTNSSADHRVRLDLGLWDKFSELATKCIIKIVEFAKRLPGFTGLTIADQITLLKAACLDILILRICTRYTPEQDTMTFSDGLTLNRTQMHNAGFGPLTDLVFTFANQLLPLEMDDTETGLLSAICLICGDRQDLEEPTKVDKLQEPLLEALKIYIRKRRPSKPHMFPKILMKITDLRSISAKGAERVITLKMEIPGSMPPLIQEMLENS
Text: Assays described below measure the ability of a compound to bind to, and/or activate various retinoid receptor subtypes. When in these assays a compound binds to a given receptor subtype and activates the transcription of a reporter gene through that subtype, then the compound is considered an agonist of that receptor subtype. […] In the below described assays the ability of the compounds to bind to RARα, RARβ, RARγ, RXRα, RXRβ and RXRγ receptors, and the ability or inability of the compounds to activate transcription of a reporter gene through these receptor subtypes can be tested.
As far as specific assays are concerned, a chimeric receptor transactivation assay which tests for agonist-like activity in the RARα, RARβ, AND RARγ, receptor subtypes, and which is based on work published by Feigner P. L. and Holm M. (1989) Focus, 112 is described in detail in U.S. Pat. No. 5,455,265. The specification of U.S. Pat. No. 5,455,265 is hereby expressly incorporated by reference. The numeric results obtained with several preferred compounds of this invention in this assay are shown below in Table 1.

RARβ [2] = target: T2, RARβ (Homo sapiens, UniProt P10826); assay: ligand binding assay, RARβ; settings: Kd line of EC50/(EFFICACY)/Kd, read-out: RAR Kd β
T2 sequence (P10826 1-455): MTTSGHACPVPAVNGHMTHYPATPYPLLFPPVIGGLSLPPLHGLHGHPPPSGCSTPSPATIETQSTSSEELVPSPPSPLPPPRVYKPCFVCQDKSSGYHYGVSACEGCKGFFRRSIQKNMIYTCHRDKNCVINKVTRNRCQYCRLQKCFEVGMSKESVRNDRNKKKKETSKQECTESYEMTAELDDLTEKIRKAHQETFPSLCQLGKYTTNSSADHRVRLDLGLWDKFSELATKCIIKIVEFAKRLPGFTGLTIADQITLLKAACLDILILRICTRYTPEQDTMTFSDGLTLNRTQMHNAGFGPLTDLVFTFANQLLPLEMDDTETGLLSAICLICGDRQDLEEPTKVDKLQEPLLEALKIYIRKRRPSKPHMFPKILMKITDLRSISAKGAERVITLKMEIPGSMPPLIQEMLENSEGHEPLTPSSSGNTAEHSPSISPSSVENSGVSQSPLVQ

RARα = target: T3, RARα (Homo sapiens, UniProt P10276); assay: ligand binding assay, RARα; settings: Kd line of EC50/(EFFICACY)/Kd, read-out: RAR Kd α
T3 sequence (P10276 1-462): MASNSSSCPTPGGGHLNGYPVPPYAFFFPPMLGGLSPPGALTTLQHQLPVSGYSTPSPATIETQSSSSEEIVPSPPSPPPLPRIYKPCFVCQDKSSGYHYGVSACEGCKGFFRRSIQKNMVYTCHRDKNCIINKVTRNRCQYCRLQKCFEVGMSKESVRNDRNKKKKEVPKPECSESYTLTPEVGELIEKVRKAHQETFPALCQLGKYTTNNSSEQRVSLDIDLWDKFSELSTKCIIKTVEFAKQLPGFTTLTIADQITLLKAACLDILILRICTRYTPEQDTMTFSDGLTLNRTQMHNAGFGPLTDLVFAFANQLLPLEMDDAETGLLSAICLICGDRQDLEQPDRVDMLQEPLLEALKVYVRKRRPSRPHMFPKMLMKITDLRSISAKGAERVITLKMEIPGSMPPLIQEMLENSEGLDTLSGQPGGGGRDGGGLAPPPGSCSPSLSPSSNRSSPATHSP

RARγ = target: T4, RARγ (Homo sapiens, UniProt P13631); assay: ligand binding assay, RARγ; settings: Kd line of EC50/(EFFICACY)/Kd, read-out: RAR Kd γ
T4 sequence (P13631 1-454): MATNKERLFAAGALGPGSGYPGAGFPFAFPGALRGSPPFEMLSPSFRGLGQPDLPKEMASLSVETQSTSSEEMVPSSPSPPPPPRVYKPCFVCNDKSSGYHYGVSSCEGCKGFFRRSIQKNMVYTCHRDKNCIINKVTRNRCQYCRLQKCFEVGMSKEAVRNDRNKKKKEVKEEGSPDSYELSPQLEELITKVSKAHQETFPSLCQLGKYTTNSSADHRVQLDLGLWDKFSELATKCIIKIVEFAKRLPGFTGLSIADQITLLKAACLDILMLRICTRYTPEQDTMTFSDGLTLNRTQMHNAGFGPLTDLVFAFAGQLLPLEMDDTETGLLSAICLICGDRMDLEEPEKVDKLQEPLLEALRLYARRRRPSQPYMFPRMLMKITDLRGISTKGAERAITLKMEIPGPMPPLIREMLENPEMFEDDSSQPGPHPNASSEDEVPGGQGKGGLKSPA

Compound | pEC50 (RARβ [1]) | pKd (RARβ [2]) | pKd (RARα) | pKd (RARγ)
CN(C1CC1)C1CCC(C)(C)c2cc(C#Cc3ccc(C(=O)O)cc3)ccc21 (stereo not shown) [Compound 3, 4-[(5-Cyclopropyl-methyl-amino)-8,8-dimethyl-5,6,7,8-tetrahydro-naphthalene-2yl-ethynyl]-benzoic Acid] | 8.32 | 9.10 | 6.84 | 6.80
CC1(C)CCC(=O)c2ccc(C#Cc3ccc(CC(=O)O)cc3)cc21 [Compound 5, 4-[(8,8-Dimethyl-5-oxo-5,6,7,8-tetrahydro-naphthalene-2-yl-ethynyl)-phenyl]-acetic Acid] | 7.96 | 5.55 | 5.04 | < 5.00
CN(C1CC1)C1CCC(C)(C)c2cc(C#Cc3ccc(CC(=O)O)cc3)ccc21 (stereo not shown) [Compound 8, 4-[(5-(Cyclopropyl-methyl-amino)-8,8-dimethyl-5,6,7,8-tetrahydro-naphthalene-2-yl-ethynyl)-phenyl]-acetic Acid] | 6.44 | 5.42 |  | 4.60
CC1(C)CC2(CC2)Oc2ccc(C#Cc3ccc(C(=O)O)cc3)cc21 [Compound 40, Benzoic Acid, 4-[(3,4-dihydro-4,4-dimethylspiro[2H-1-benzopyran-2,1′-cyclopropane]-6-yl)ethynyl]-] | 8.92 | 8.89 | 7.16 | 6.44
CC1(C)CC2(CC2)Oc2ccc(C#Cc3ccc(C(=O)O)c(F)c3)cc21 [Compound 44, 2-Fluoro-benzoic Acid, 4-[(3,4-dihydro-4,4-dimethylspiro[2H-1-benzopyran-2,1′-cyclopropane]-6-yl)ethynyl]-] | 8.77 | 8.72 | 7.43 | 6.41
COC1(c2ccc(C#Cc3ccc(C(=O)O)cc3)cc2)CC1 [Compound 69, 4-[4-(1-Methoxycyclopropyl)-phenylethynyl]-benzoic Acid] | 7.92 | 6.88 | 6.33 | 6.30
CC(C)OC1(c2ccc(C#Cc3ccc(C(=O)O)cc3)cc2)CC1 [Compound 73, 4-[4-(1-Isopropoxycyclopropyl)-phenylethynyl]-benzoic Acid] | 7.65 | 7.59 | 6.31 | 6.45
Cc1cc(C#Cc2ccc(C(=O)O)cc2)ccc1C1(OCc2ccccc2)CC1 [Compound 81, 4-[4-(1-Benzyloxycyclopropyl)-3-methyl-phenylethynyl]-benzoic Acid] | 6.31 | 6.07 | 5.38 | 5.98
Cc1cc(C#Cc2ccc(C(=O)O)cc2)ccc1C1(OC(C)C)CC1 [Compound 85, 4-[4-(1-Isopropoxycyclopropyl)-3-methyl-phenylethynyl]-benzoic Acid] | 8.46 | 6.62 | 5.73 | 6.52
Cc1cc(C#Cc2ccc(C(=O)O)cc2)ccc1C1(OCC(C)(C)C)CC1 [Compound 89, 4-[4-[1-(2,2-Dimethylpropyloxy)-cyclopropyl]-3-methyl-phenylethynyl]-benzoic Acid] | 7.59 | 6.01 | 5.47 | 6.32
CCc1cc(C#Cc2ccc(C(=O)O)cc2)ccc1C1(OCc2ccccc2)CC1 [Compound 93, 4-[4-(1-Benzyloxycyclopropyl)-3-ethyl-phenylethynyl]-benzoic Acid] | 7.70 | 6.26 | 5.46 | 6.45
CCCNC1(c2ccc(C#Cc3ccc(C(=O)O)cc3)cc2)CC1 [Compound 108, 4-[4-(1-Propylamino-cyclopropyl)-phenylethynyl]-benzoic Acid] | 6.55 | 6.26 | 4.68 | 4.89
CCCN(CCC)C1(c2ccc(C#Cc3ccc(C(=O)O)cc3)cc2)CC1 [Compound 110, 4-[4-(1-Dipropylamino-cyclopropyl)-phenylethynyl]-benzoic Acid] | 7.13 | 6.39 | 5.69 | > 5.00
O=C(O)c1ccc(C#Cc2ccc(C3(NCc4ccccc4)CC3)cc2)cc1 [Compound 112, 4-[4-(1-Benzylamino-cyclopropyl)-phenylethynyl]-benzoic Acid] | 6.47 | 6.15 | 5.23 | 6.16
